Values joined by “and” are separate entries in the source; they are usually repeats but may differ in a detail not shown here. Equal entries are not always repeated.
System: Human umbilical vein endothelial cells (HUVECs)
Assay: eNOS activity analysis: NO, ONOO− and NO/ONOO− release from HUVECs of 50 genotyped donors in response to LA-419 (Example 2)
Type: cell-based
Conditions: for Fold difference NO/ONOO− (mean ± sd) / Fold difference ONOO− (mean ± sd) / Fold difference NO (mean ± sd): Caucasian, (LA-419 5 μM)/(control); for % Change NO (mean ± sd) / % Change NO/ONOO− (mean ± sd) / % Change ONOO− (mean ± sd): LA-419 1 μM vs control
Protocol: Concurrent measurements of NO and ONOO^− were carried out with tandem electrochemical nanosensors combined into one working unit with a total diameter of 200-500 nm (FIG. 1). Their design was based on previously developed and well-characterized chemically modified carbon-fiber technology (Malinski and Taha, 1992; Lvovich and Scheeline, 1997). Each of the nanosensors was made by depositing a sensing material on the tip of a carbon fiber (length 4-5 μm, diameter 0.2-0.5 μm). The fibers were sealed with nonconductive epoxy and electrically connected to copper wires with conductive silver epoxy. A conductive film of polymeric nickel (II) tetrakis(3-methoxy-4-hydroxyphenyl)porphyrin for the NO-sensor and polymeric film of Mn (III) [2.2]paracyclophanylporphyrin was used for the ONOO^−-sensor.
A module of NO/ONOO^− nanosensors (diameter 1-2 μm) with a platinum wire (0.1 mm) counter electrode and saturated calomel reference electrode (SCE) were applied. Differential pulse voltammetry (DPV) and amperometry were performed with a computer-based Gamry VFP600 multichannel potentiostat. DPV was used to measure the basal NO and ONOO^− concentrations, and amperometry was used to measure changes in NO and ONOO^− concentrations from its basal level with time. The DPV current at the peak potential characteristic for NO oxidation (0.65 V) and ONOO^− reduction (−0.45 V) was directly proportional to the local concentrations of these compounds in the immediate vicinity of the sensor. Linear calibration curves (current vs. concentration) were constructed for each sensor from 10 nM to 3 μM before and after measurements with aliquots of NO and ONOO^− standard solutions, respectively. The detection limit of the sensors was 1.0 nM.
The quantification of each analyte (concentration in nM) was performed using a maximum current from amperograms and standard calibration curves. A reproducibility of measurements with nanosensors is relatively high (between 5-12%). […] The sensors were slowly raised 5±2 μm from the surface of a single endothelial cell. The eNOS agonist, calcium ionophore A23187 (CaI) as well as the different drugs were then added to the surrounding media at the cell surface with a nanoinjector that was also positioned by a computer controlled-micromanipulator.
This example describes the genotype-specific response of the three major eNOS variants to 1 μM and 5 μM concentrations of LA-419. The three major genetic polymorphisms studied were the Glu298Asp variant (E298D or 894G→T) in exon 7 of […], the −786T→C variant in the promoter region, and the intron 4 polymorphism (VNTR). All of these variants have possible effects on the cardiovascular system and endothelial dysfunction. For this study, human umbilical vein endothelial cells (HUVECs) from 50 donors between 18 and 32 years of age were used.
For the analysis several analysis techniques were employed. First, the effect of genotype on NO and ONOO^− release was explored within the different concentrations of LA-419 (control, 1 μM, 5 μM), calculated as the average peak release (nmols/L) of NO, ONOO^−, and NO/ONOO^−. The effect of genotype on the net increase in NO, ONOO^−, and NO/ONOO^− for LA-419 (1 μM and 5 μM) as compared to control was also measured. In addition, an analysis was done on the effect of genotype on the % change in NO, ONOO^−, and NO/ONOO^− production for LA-419 (1 μM and 5 μM), calculated as:
% Change=[(avg. LA-419−avg. control)/(avg. control)]*100
Finally, an evaluation was undertaken concerning the effect of genotype on the production of NO, ONOO^−, and NO/ONOO^− as the fold difference of control for LA-419 (1 μM and 5 μM), calculated as:
Fold Difference=(avg. LA-419)/(avg. control)
Within each calculation technique the results were compared for statistical significance using a non-parametric ANOVA Kruskal-Wallace test or a non-parametric Mann-Whitney U test. Statistical significance was set at a p-value <0.05 in a two-tailed distribution. […]

[1] = HUVEC donor Race Caucasian/Black

## CC(=O)SC1COC2C(O[N+](=O)[O-])COC12 (stereo not drawn) [LA-419, S-(6-Nitro-oxi-hexahydro-furo[3,2-b]furan-3-1-il)thioacetate]
G894T G/G, n=10
  Fold difference NO/ONOO− (mean ± sd): 1.47 (0.12)
  Fold difference ONOO− (mean ± sd): 0.81 (0.04)
G894T G/T & T/T, n=16
  Fold difference NO (mean ± sd): 1.11 (0.05)
  Fold difference NO/ONOO− (mean ± sd): 1.35 (0.10)
  Fold difference ONOO− (mean ± sd): 0.83 (0.07)
G894T G/T, n=13
  Fold difference NO (mean ± sd): 1.12 (0.05)
  Fold difference NO/ONOO− (mean ± sd): 1.34 (0.09)
  Fold difference ONOO− (mean ± sd): 0.83 (0.06)
G894T T/T, n=3
  Fold difference NO (mean ± sd): 1.11 (0.07)
  Fold difference NO/ONOO− (mean ± sd): 1.39 (0.17)
  Fold difference ONOO− (mean ± sd): 0.80 (0.12)
Intron 4 b/a & a/a, n=6
  Fold difference NO (mean ± sd): 1.16 (0.06)
  Fold difference NO/ONOO− (mean ± sd): 1.39 (0.11)
  Fold difference ONOO− (mean ± sd): 0.83 (0.05)
Intron 4 b/a, n=5
  Fold difference NO (mean ± sd): 1.16 (0.06)
  Fold difference NO/ONOO− (mean ± sd): 1.39 (0.12)
  Fold difference ONOO− (mean ± sd): 0.83 (0.05)
Intron 4 b/b, n=18
  Fold difference NO (mean ± sd): 1.13 (0.07)
  Fold difference NO/ONOO− (mean ± sd): 1.39 (0.13)
  Fold difference ONOO− (mean ± sd): 0.82 (0.06)
T-786C T/C & C/C, n=16
  Fold difference NO (mean ± sd): 1.12 (0.06)
  Fold difference NO/ONOO− (mean ± sd): 1.36 (0.10)
  Fold difference ONOO− (mean ± sd): 0.82 (0.06)
T-786C T/C, n=15
  Fold difference NO (mean ± sd): 1.13 (0.06)
  Fold difference NO/ONOO− (mean ± sd): 1.35 (0.09)
  Fold difference ONOO− (mean ± sd): 0.83 (0.04)
T-786C T/T, n=10
  Fold difference NO (mean ± sd): 1.17 (0.08)
  Fold difference NO/ONOO− (mean ± sd): 1.49 (0.14) and 1.45 (0.14)
  Fold difference ONOO− (mean ± sd): 0.82 (0.07)
LA-419 1 μM (Table c1)
  peak release of NO versus control: smaller increase
LA-419 1 μM (Table c2)
  ONOO− production versus control: no apparent decrease
[1]
  % Change NO (mean ± sd): 9.57 (6.43) %
  % Change NO/ONOO− (mean ± sd): 3.77 (26.27) %
  % Change ONOO− (mean ± sd): 9.37 (21.79) %
HUVEC donor Race Not Reported
  % Change NO (mean ± sd): 14.50 (2.19) %
  % Change NO/ONOO− (mean ± sd): 37.24 (1.75) %
  % Change ONOO− (mean ± sd): −16.55 (2.66) %
HUVEC donor alpha
  % Change NO (mean ± sd): −4.73 (18.81) %
  % Change NO/ONOO− (mean ± sd): −8.17 (36.37) %
  % Change ONOO− (mean ± sd): 16.25 (36.48) %
HUVEC donor beta
  % Change NO (mean ± sd): 21.25 (25.58) %
  % Change NO/ONOO− (mean ± sd): 61.80 (74.46) %
  % Change ONOO− (mean ± sd): −18.41 (17.30) %
HUVEC donor delta
  % Change NO (mean ± sd): 8.95 (0) %
  % Change NO/ONOO− (mean ± sd): 33.68 (0) %
  % Change ONOO− (mean ± sd): −18.50 (0) %
HUVEC donor gamma
  % Change NO (mean ± sd): 11.74 (17.99) %
  % Change NO/ONOO− (mean ± sd): 26.85 (45.85) %
  % Change ONOO− (mean ± sd): −6.29 (19.74) %
HUVECs G894T variant G/G
  % Change NO (mean ± sd): 7.77 (18.82) %
  % Change NO/ONOO− (mean ± sd): 21.83 (51.78) %
  % Change ONOO− (mean ± sd): −2.10 (27.33) %
HUVECs G894T variant G/T
  % Change NO (mean ± sd): 20.99 (29.98) %
  % Change NO/ONOO− (mean ± sd): 50.45 (77.28) %
  % Change ONOO− (mean ± sd): −9.58 (26.95) %
HUVECs G894T variant T/T
  % Change NO (mean ± sd): 8.69 (18.85) %
  % Change NO/ONOO− (mean ± sd): 61.97 (81.82) %
  % Change ONOO− (mean ± sd): −25.44 (21.34) %
HUVECs Intron 4 variant a/a
  % Change NO (mean ± sd): −4.57 (24.67) %
  % Change NO/ONOO− (mean ± sd): −3.62 (44.56) %
  % Change ONOO− (mean ± sd): 9.62 (33.98) %
HUVECs Intron 4 variant b/a
  % Change NO (mean ± sd): 20.51 (28.08) %
  % Change NO/ONOO− (mean ± sd): 42.92 (65.15) %
  % Change ONOO− (mean ± sd): −6.58 (30.92) %
HUVECs Intron 4 variant b/b
  % Change NO (mean ± sd): 13.46 (23.13) %
  % Change NO/ONOO− (mean ± sd): 43.27 (71.09) %
  % Change ONOO− (mean ± sd): −10.24 (27.17) %
HUVECs Intron 4 variant c/c
  % Change NO (mean ± sd): −26.76 (0) %
  % Change NO/ONOO− (mean ± sd): −26.15 (0) %
  % Change ONOO− (mean ± sd): −0.63 (0) %
HUVECs T-786C variant C/C
  % Change NO (mean ± sd): 1.91 (11.63) %
  % Change NO/ONOO− (mean ± sd): 2.52 (35.64) %
  % Change ONOO− (mean ± sd): 11.13 (43.85) %
HUVECs T-786C variant T/C
  % Change NO (mean ± sd): 17.70 (29.53) %
  % Change NO/ONOO− (mean ± sd): 52.82 (77.96) %
  % Change ONOO− (mean ± sd): −12.40 (28.22) %
HUVECs T-786C variant T/T
  % Change NO (mean ± sd): 9.48 (17.79) %
  % Change NO/ONOO− (mean ± sd): 25.48 (51.97) %
  % Change ONOO− (mean ± sd): −5.17 (21.75) %
LA-419 1 μM, HUVEC donor Race Asian
  % Change Ratio, % Change NO/% Change ONOO− (mean ± sd): −0.48 (0)
LA-419 1 μM, HUVEC donor Race Black
  % Change Ratio, % Change NO/% Change ONOO− (mean ± sd): 2.81 (12.60)
LA-419 1 μM, HUVEC donor Race Not Reported
  % Change Ratio, % Change NO/% Change ONOO− (mean ± sd): −0.90 (0.28)
LA-419 1 μM, HUVECs G894T + T-786C Combination of all genotypes other than G/G + T/T
  Net increase over control NO (mean ± sd): 38.70 (72.56) nmols/L

Reference: patent US20130131161A1, “METHODS AND COMPOSITIONS FOR CARDIOVASCULAR DISEASES AND CONDITIONS” (priority 2009, published 2013)
